According to US10597388B2, “Pyridazinone herbicides” (FMC CORPORATION, priority 2014, dated 2020):

Legend:
Type in all cases: in vivo
[1] = test system: waterhemp_RES1 (ALS & Triazine resistant common waterhemp, Amaranthus rudis); test: Test E greenhouse herbicide test, postemergence
In short: (§1)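 Postemergence spray on potted plants, 1–4 leaves, 2–18 cm; greenhouse 14–21 d; visual rating vs controls, 0 (no effect) to 100 (complete control).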

[2] = test system: waterhemp_RES2 (ALS & HPPD resistant common waterhemp, Amaranthus rudis); test: Test E greenhouse herbicide test, postemergence
In short: as §1

[3] = test system: crabgrass, Brazilian (Brazilian crabgrass, Digitaria horizontalis); test: Test E greenhouse herbicide test, pre- and postemergence
In short: (§2)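 Seeds were sown in silt loam and sprayed preemergence with compound in a non-phytotoxic solvent mix containing surfactant; for postemergence, plants at 2 to 18 cm (1- to 4-leaf stage) in peat-based potting medium were sprayed with the same formulation. After 14 to 21 d in a greenhouse, injury was rated visually against controls (0–100).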

[4] = test system: arrowleaf sida (Sida rhombifolia); test: as above
In short: as §2

soybean (Glycine max) = test: as above
In short: as §2

[5] = test system: lambsquarters (Chenopodium album); test: as above; conditions: Preemergence
In short: as §2

[6] = test system: waterhemp (common waterhemp, Amaranthus rudis); test: as above
In short: as §2

[7] = test system: velvetleaf (Abutilon theophrasti); test: as above; conditions: Preemergence
In short: as §2

[8] = test system: nutsedge, yellow (yellow nutsedge, Cyperus esculentus); test: as above; conditions: Preemergence
In short: as §2

[9] = test system: johnsongrass (Sorghum halepense); test: as above; conditions: Preemergence
In short: as §2

[10] = test system: foxtail, giant (giant foxtail, Setaria faberii); test: as above; conditions: Preemergence
In short: as §2

[11] = test system: horseweed (Conyza canadensis); test: as above
In short: as §2

kochia (Kochia scoparia) = test: as above
In short: as §2

[12] = test system: ragweed (common ragweed, Ambrosia elatior); test: as above
In short: as §2

[13] = test system: pigweed, palmer (palmer pigweed, Amaranthus palmeri); test: as above
In short: as §2

[14] = test system: sandbur (southem sandbur, Cenchrus echinatus); test: as above
In short: as §2

[15] = test system: foxtail, green (green foxtail, Setaria viridis); test: as above; conditions: Preemergence
In short: as §2

[16] = 31 g ai/ha, visual, scale 0 no effect to 100 complete control
[17] = 125 g ai/ha, scale 0 to 100 (0 no effect, 100 complete control)
[18] = 250 g ai/ha, scale 0 to 100 (0 no effect, 100 complete control)
[19] = 62 g ai/ha, Postemergence, scale 0 to 100 (0 no effect, 100 complete control)
[20] = 62 g ai/ha, Preemergence, scale 0 to 100 (0 no effect, 100 complete control)
[21] = 125 g ai/ha, Postemergence, scale 0 to 100 (0 no effect, 100 complete control)
[22] = 125 g ai/ha, Preemergence, scale 0 to 100 (0 no effect, 100 complete control)
[23] = 250 g ai/ha, Postemergence, scale 0 to 100 (0 no effect, 100 complete control)
[24] = Postemergence, 31 g ai/ha, visual, scale 0 no effect to 100 complete control
[25] = Preemergence, 31 g ai/ha, scale 0 to 100, 0 no effect, 100 complete control
[26] = Preemergence, 250 g ai/ha, visual, scale 0 no effect to 100 complete control
[27] = 62 g ai/ha, scale 0 to 100 (0 no effect, 100 complete control)
[28] = 31 g ai/ha, scale 0 to 100, 0 no effect, 100 complete control
[29] = 250 g ai/ha, visual, scale 0 no effect to 100 complete control

COC(=O)Oc1c(C)nn(C)c(=O)c1-c1c(C)sc2c(C)cc(C)cc12 [Compound 81]
Plant response rating, Waterhemp_RES1 [1, 16]: 50
Plant response rating, Waterhemp_RES1 [1, 17]: 60
Plant response rating, Waterhemp_RES1 [1, 18]: 65
Plant response rating, Waterhemp_RES2 [2, 16]: 10
Plant response rating, Waterhemp_RES2 [2, 17]: 50
Plant response rating, Waterhemp_RES2 [2, 18]: 50
Plant response rating, Crabgrass, Brazil [3, 19]: 40
Plant response rating, Crabgrass, Brazil [3, 20]: 95
Plant response rating, Crabgrass, Brazil [3, 21]: 50
Plant response rating, Crabgrass, Brazil [3, 22]: 90
Plant response rating, Crabgrass, Brazil [3, 23]: 50
Plant response rating, Crabgrass, Brazil [3, 24]: 40
Plant response rating, Crabgrass, Brazil [3, 25]: 65
Plant response rating, Crabgrass, Brazil [3, 26]: 100
Plant response rating, Arrowleaf Sida [4, 19]: 40
Plant response rating, Arrowleaf Sida [4, 20]: 60
Plant response rating, Arrowleaf Sida [4, 21]: 30
Plant response rating, Arrowleaf Sida [4, 22]: 70
Plant response rating, Arrowleaf Sida [4, 23]: 60
Plant response rating, Arrowleaf Sida [4, 24]: 40
Plant response rating, Arrowleaf Sida [4, 25]: 40
Plant response rating, Arrowleaf Sida [4, 26]: 70
Plant response rating, Soybean (soybean (Glycine max); [20]): 0
Plant response rating, Soybean (soybean (Glycine max); [21]): 0
Plant response rating, Soybean (soybean (Glycine max); [22]): 0
Plant response rating, Soybean (soybean (Glycine max); [23]): 10
Plant response rating, Soybean (soybean (Glycine max); [24]): 0
Plant response rating, Soybean (soybean (Glycine max); [25]): 0
Plant response rating, Soybean (soybean (Glycine max); [26]): 0
Plant response rating, Lambsquarters [5, 27]: 100
Plant response rating, Lambsquarters [5, 17]: 100
Plant response rating, Lambsquarters [5, 28]: 98
Plant response rating, Lambsquarters [5, 29]: 100
Plant response rating, Waterhemp [6, 20]: 90
Plant response rating, Waterhemp [6, 21]: 60
Plant response rating, Waterhemp [6, 22]: 90
Plant response rating, Waterhemp [6, 23]: 75
Plant response rating, Waterhemp [6, 24]: 50
Plant response rating, Waterhemp [6, 25]: 60
Plant response rating, Waterhemp [6, 26]: 90
Plant response rating, Velvetleaf [7, 27]: 70
Plant response rating, Velvetleaf [7, 17]: 90
Plant response rating, Velvetleaf [7, 28]: 10
Plant response rating, Velvetleaf [7, 29]: 95
Plant response rating, Nutsedge, Yellow [8, 27]: 30
Plant response rating, Nutsedge, Yellow [8, 17]: 80
Plant response rating, Nutsedge, Yellow [8, 28]: 35
Plant response rating, Nutsedge, Yellow [8, 29]: 90
Plant response rating, Johnsongrass [9, 27]: 90
Plant response rating, Johnsongrass [9, 17]: 65
Plant response rating, Johnsongrass [9, 28]: 70
Plant response rating, Johnsongrass [9, 29]: 100
Plant response rating, Foxtail, Giant [10, 27]: 98
Plant response rating, Foxtail, Giant [10, 17]: 98
Plant response rating, Foxtail, Giant [10, 28]: 75
Plant response rating, Foxtail, Giant [10, 29]: 100
Plant response rating, Horseweed [11, 19]: 75
Plant response rating, Horseweed [11, 20]: 100
Plant response rating, Horseweed [11, 21]: 65
Plant response rating, Horseweed [11, 22]: 100
Plant response rating, Horseweed [11, 23]: 85
Plant response rating, Horseweed [11, 24]: 50
Plant response rating, Horseweed [11, 25]: 90
Plant response rating, Horseweed [11, 26]: 100
Plant response rating, Kochia (kochia (Kochia scoparia); [19]): 70
Plant response rating, Kochia (kochia (Kochia scoparia); [20]): 20
Plant response rating, Kochia (kochia (Kochia scoparia); [21]): 70
Plant response rating, Kochia (kochia (Kochia scoparia); [22]): 35
Plant response rating, Kochia (kochia (Kochia scoparia); [23]): 75
Plant response rating, Kochia (kochia (Kochia scoparia); [24]): 60
Plant response rating, Kochia (kochia (Kochia scoparia); [25]): 0
Plant response rating, Kochia (kochia (Kochia scoparia); [26]): 100
Plant response rating, Ragweed [12, 19]: 60
Plant response rating, Ragweed [12, 20]: 100
Plant response rating, Ragweed [12, 21]: 85
Plant response rating, Ragweed [12, 22]: 100
Plant response rating, Ragweed [12, 23]: 80
Plant response rating, Ragweed [12, 24]: 60
Plant response rating, Ragweed [12, 25]: 90
Plant response rating, Ragweed [12, 26]: 100
Plant response rating, Pigweed, Palmer [13, 19]: 20
Plant response rating, Pigweed, Palmer [13, 20]: 75
Plant response rating, Pigweed, Palmer [13, 22]: 75
Plant response rating, Pigweed, Palmer [13, 23]: 50
Plant response rating, Pigweed, Palmer [13, 24]: 30
Plant response rating, Pigweed, Palmer [13, 25]: 35
Plant response rating, Pigweed, Palmer [13, 26]: 100
Plant response rating, Sandbur [14, 20]: 40
Plant response rating, Sandbur [14, 21]: 70
Plant response rating, Sandbur [14, 22]: 70
Plant response rating, Sandbur [14, 23]: 75
Plant response rating, Sandbur [14, 24]: 60
Plant response rating, Sandbur [14, 25]: 10
Plant response rating, Sandbur [14, 26]: 90
Plant response rating, Foxtail, Green [15, 27]: 70
Plant response rating, Foxtail, Green [15, 17]: 95
Plant response rating, Foxtail, Green [15, 28]: 20
Plant response rating, Foxtail, Green [15, 29]: 100
